Reference: patent US8022218B2, “4-phenyl-5-oxo-1,4,5,6,7,8-hexahydroquinoline derivatives for the treatment of infertility” (N.V. Organon, priority 2005, dated 2011)

Each molecule was assayed against T1, human FSH receptor (Homo sapiens, UniProt P23945) (assay: Agonistic activity at the human FSH receptor expressed in CHO cells (CRE-luciferase reporter)). Conditions: CHO cells stably transfected with human FSH receptor and CRE/luciferase reporter; tested 0.1 nM to 10 μM; read-out: EC50 (concentration of test compound causing half-maximal (50%) luciferase stimulation).
T1 construct: expressed in transfected cells; host or cells: Chinese Hamster Ovary (CHO) cells
T1 sequence (P23945 18-695): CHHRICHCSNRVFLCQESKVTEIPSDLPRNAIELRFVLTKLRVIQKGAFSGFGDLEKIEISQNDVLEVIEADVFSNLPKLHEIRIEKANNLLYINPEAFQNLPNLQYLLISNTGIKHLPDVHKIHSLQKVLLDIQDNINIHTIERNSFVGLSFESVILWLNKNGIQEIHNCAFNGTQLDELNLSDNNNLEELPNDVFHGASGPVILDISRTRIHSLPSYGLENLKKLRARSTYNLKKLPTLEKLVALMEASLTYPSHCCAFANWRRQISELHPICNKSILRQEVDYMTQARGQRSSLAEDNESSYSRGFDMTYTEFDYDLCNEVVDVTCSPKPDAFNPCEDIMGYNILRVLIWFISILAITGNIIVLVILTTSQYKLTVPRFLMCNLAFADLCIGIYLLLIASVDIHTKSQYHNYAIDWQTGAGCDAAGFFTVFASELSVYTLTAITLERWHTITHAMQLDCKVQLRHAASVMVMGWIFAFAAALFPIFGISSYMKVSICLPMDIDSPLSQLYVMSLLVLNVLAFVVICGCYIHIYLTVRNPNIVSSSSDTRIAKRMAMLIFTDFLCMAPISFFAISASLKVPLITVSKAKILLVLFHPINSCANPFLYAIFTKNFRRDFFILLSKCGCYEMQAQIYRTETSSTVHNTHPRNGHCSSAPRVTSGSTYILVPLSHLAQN
Type: cell-based
Procedure: Agonistic Activity of Compounds at the Human FSH Receptor Expressed in CHO Cells
Agonist activity of the compounds at the human FSH receptor was tested in Chinese Hamster Ovary (CHO) cells stably transfected with the human FSH receptor and cotransfected with a cAMP responsive element (CRE)/promotor directing the expression of a firefly luciferase reporter gene. Binding of the compound to the Gscoupled FSH receptor will result in an increase of cAMP, which in turn will induce an increased transactivation of the luciferase reporter construct. The luciferase activity was quantified using a luminescence counter. The compounds were tested in the concentration range of 0.1 nM to 10 μM. This assay was used to determine the EC50 (concentration of test compound causing half-maximal (50%) luciferase stimulation) and efficacy of the compounds compared to recombinant human FSH. For this, the software program XLfit (Excel version 2.0, built 30, ID Business Solutions Limited) was used.

EC50, < 10 nM:
CCCC1CC(=O)C2=C(C1)NC(C)=C(C#N)C2c1cc(Br)c(OCc2cccc(NS(C)(=O)=O)c2)c(OCC)c1 (stereo not drawn) [Example 42, N-{3-[2-Bromo-4-(3-cyano-2-methyl-5-oxo-7-propyl-1,4,5,6,7,8-hexahydro-quinolin-4-yl)-6-ethoxy-phenoxymethyl]-phenyl}-methanesulfonamide]
CCCC1CC(=O)C2=C(C1)NC(C)=C(C#N)C2c1cc(Br)c(OCc2cccnc2NC(=O)OC)c(OCC)c1 (stereo not drawn) [Example 38, {3-[2-Bromo-4-(3-cyano-2-methyl-5-oxo-7-propyl-1,4,5,6,7,8-hexahydro-quinolin-4-yl)-6-ethoxy-phenoxymethyl]-pyridin-2-yl}-carbamic acid methyl ester]
CCCC1CC(=O)C2=C(C1)NC(C)=C(C#N)C2c1cc(Br)c(OCc2cccc(NC(=O)CN3CCN(CCO)CC3)c2)c(OCC)c1 (stereo not drawn) [Example 5, N-{3-[2-Bromo-4-(3-cyano-2-methyl-5-oxo-7-propyl-1,4,5,6,7,8-hexahydro-quinolin-4-yl)-6-ethoxy-phenoxymethyl]-phenyl}-2-[4-(2-hydroxy-ethyl)-piperazin-1-yl]-acetamide]
CCCC1CC(=O)C2=C(C1)NC(C)=C(C#N)C2c1cc(Br)c(OCc2cccn2S(C)(=O)=O)c(OCC)c1 (stereo not drawn) [Example 51, 4-[3-Bromo-5-ethoxy-4-(1-methanesulfonyl-1H-pyrrol-2-ylmethoxy)-phenyl]-2-methyl-5-oxo-7-propyl-1,4,5,6,7,8-hexahydro-quinoline-3-carbonitrile]
CCCC1CC(=O)C2=C(C1)NC(C)=C(C#N)C2c1cc(Br)c(OCc2ccccc2NC(=O)c2ccco2)c(OCC)c1 (stereo not drawn) [Example 22, Furan-2-carboxylic acid {2-[2-bromo-4-(3-cyano-2-methyl-5-oxo-7-propyl-1,4,5,6,7,8-hexahydro-quinolin-4-yl)-6-ethoxy-phenoxymethyl]-phenyl}-amide]
CCCC1CC(=O)C2=C(C1)NC(C)=C(C#N)C2c1cc(Br)c(OCc2cccc(NC(=O)CNCc3ccncc3)c2)c(OCC)c1 (stereo not drawn) [Example 3, N-{3-[2-Bromo-4-(3-cyano-2-methyl-5-oxo-7-propyl-1,4,5,6,7,8-hexahydro-quinolin-4-yl)-6-ethoxy-phenoxymethyl]-phenyl}-2-[(pyridin-4-ylmethyl)-amino]-acetamide]
CCCC1CC(=O)C2=C(C1)NC(C)=C(C#N)C2c1cc(Br)c(OCc2cccc(OCC(=O)N(C)C)c2)c(OCC)c1 (stereo not drawn) [Example 15, 2-{3-[2-Bromo-4-(3-cyano-2-methyl-5-oxo-7-propyl-1,4,5,6,7,8-hexahydro-quinolin-4-yl)-6-ethoxy-phenoxymethyl]-phenoxy}-N,N-dimethyl-acetamide]
CCCC1CC(=O)C2=C(C1)NC(C)=C(C#N)C2c1cc(Br)c(OCc2ccccc2NC(=O)NC)c(OCC)c1 (stereo not drawn) [Example 34, 1-{2-[2-Bromo-4-(3-cyano-2-methyl-5-oxo-7-propyl-1,4,5,6,7,8-hexahydro-quinolin-4-yl)-6-ethoxy-phenoxymethyl]-phenyl}-3-methyl-urea]
CCCC1CC(=O)C2=C(C1)NC(C)=C(C#N)C2c1cc(Br)c(OCc2ccccc2NC(=O)C2CC2)c(OCC)c1 (stereo not drawn) [Example 24, Cyclopropanecarboxylic acid {2-[2-bromo-4-(3-cyano-2-methyl-5-oxo-7-propyl-1,4,5,6,7,8-hexahydro-quinolin-4-yl)-6-ethoxy-phenoxymethyl]-phenyl}-amide]
CCC[C@@H]1CC(=O)C2=C(C1)NC(C)=C(C#N)[C@H]2c1cc(Br)c(OCc2cc(F)c(F)cc2NS(C)(=O)=O)c(OCC)c1 [Example 72, N-{2-[2-Bromo-4-((4R,7S)-3-cyano-2-methyl-5-oxo-7-propyl-1,4,5,6,7,8-hexahydro-quinolin-4-yl)-6-ethoxy-phenoxymethyl]-4,5-difluoro-phenyl}-methanesulfonamide]
CCCC1CC(=O)C2=C(C1)NC(C)=C(C#N)C2c1cc(Br)c(NCc2ccccc2NS(C)(=O)=O)c(OCC)c1 (stereo not drawn) [Example 58, N-(2-{[2-Bromo-4-(3-cyano-2-methyl-5-oxo-7-propyl-1,4,5,6,7,8-hexahydro-quinolin-4-yl)-6-ethoxy-phenylamino]-methyl}-phenyl)-methanesulfonamide]
CCCC1CC(=O)C2=C(C1)NC(C)=C(C#N)C2c1cc(Br)c(OCc2ccc(C(=N)NC)cc2)c(OCC)c1 (stereo not drawn) [Example 54, 4-[2-Bromo-4-(3-cyano-2-methyl-5-oxo-7-propyl-1,4,5,6,7,8-hexahydro-quinolin-4-yl)-6-ethoxy-phenoxymethyl]-N-methyl-benzamidine]
CCCC1CC(=O)C2=C(C1)NC(C)=C(C#N)C2c1cc(Br)c(OCc2cccc(NC(=O)CCN(CCOC)CCOC)c2)c(OCC)c1 (stereo not drawn) [Example 11, 3-[Bis-(2-methoxy-ethyl)-amino]-N-{3-[2-bromo-4-(3-cyano-2-methyl-5-oxo-7-propyl-1,4,5,6,7,8-hexahydro-quinolin-4-yl)-6-ethoxy-phenoxymethyl]-phenyl}-propionamide]
CCCC1CC(=O)C2=C(C1)NC(C)=C(C#N)C2c1cc(Br)c(OCc2cccc(C(=O)N3CC=CCC3)c2)c(OCC)c1 (stereo not drawn) [Example 7, 4-{3-Bromo-4-[3-(3,6-dihydro-2H-pyridine-1-carbonyl)-benzyloxy]-5-ethoxy-phenyl}-2-methyl-5-oxo-7-propyl-1,4,5,6,7,8-hexahydro-quinoline-3-carbonitrile]
C=CC(=O)Nc1ccccc1COc1c(Br)cc(C2C(C#N)=C(C)NC3=C2C(=O)CC(CCC)C3)cc1OCC (stereo not drawn) [Example 23, N-{2-[2-Bromo-4-(3-cyano-2-methyl-5-oxo-7-propyl-1,4,5,6,7,8-hexahydro-quinolin-4-yl)-6-ethoxy-phenoxymethyl]-phenyl}-acrylamide]
CCCC1CC(=O)C2=C(C1)NC(C)=C(C#N)C2c1cc(Br)c(NCc2cccnc2)c(OCC)c1 (stereo not drawn) [Example 56, 4-{3-Bromo-5-ethoxy-4-[(pyridin-3-ylmethyl)-amino]-phenyl}-2-methyl-5-oxo-7-propyl-1,4,5,6,7,8-hexahydro-quinoline-3-carbonitrile]
CCCC1CC(=O)C2=C(C1)NC(C)=C(C#N)C2c1cc(Br)c(OCc2cccc(OCC(=O)N3CCOCC3)c2)c(OCC)c1 (stereo not drawn) [Example 17, 4-{3-Bromo-5-ethoxy-4-[3-(2-morpholin-4-yl-2-oxo-ethoxy)-benzyloxy]-phenyl}-2-methyl-5-oxo-7-propyl-1,4,5,6,7,8-hexahydro-quinoline-3-carbonitrile]
CCCC1CC(=O)C2=C(C1)NC(C)=C(C#N)C2c1cc(Br)c(OCc2ccccc2NC(=O)OC)c(OCC)c1 (stereo not drawn) [Example 25]
CCCC1CC(=O)C2=C(C1)NC(C)=C(C#N)C2c1cc(Br)c(OCc2cccc(NC(=O)c3cc(OC)c(OC)c(OC)c3)c2)c(OCC)c1 (stereo not drawn) [Example 1, N-{3-[2-Bromo-4-(3-cyano-2-methyl-5-oxo-7-propyl-1,4,5,6,7,8-hexahydro-quinolin-4-yl)-6-ethoxy-phenoxymethyl]-phenyl}-3,4,5-trimethoxy-benzamide]
CCCC1CC(=O)C2=C(C1)NC(C)=C(C#N)C2c1cc(Br)c(OCc2ccccc2NCC2CC2)c(OCC)c1 (stereo not drawn) [Example 62, 4-{3-Bromo-4-[2-(cyclopropylmethyl-amino)-benzyloxy]-5-ethoxy-phenyl}-2-methyl-5-oxo-7-propyl-1,4,5,6,7,8-hexahydro-quinoline-3-carbonitrile]
C=CCOC(=O)Nc1ccc(COc2c(Br)cc(C3C(C#N)=C(C)NC4=C3C(=O)CC(CCC)C4)cc2OCC)cc1 (stereo not drawn) [Example 50, {4-[2-Bromo-4-(3-cyano-2-methyl-5-oxo-7-propyl-1,4,5,6,7,8-hexahydro-quinolin-4-yl)-6-ethoxy-phenoxymethyl]-phenyl}-carbamic acid allyl ester]
